Experimental data taken from US11760775B2, “Steroids and protein-conjugates thereof” (Regeneron Pharmaceuticals, Inc., priority 2016, dated 2023).
Where a name gives a salt, the structure may show the parent alone. Read-outs that look alike come from different tables or passages of the source.

Key:
[1] = biological target: Glucocorticoid Receptor (GR) (Homo sapiens (Human), UniProt P04150); test: LanthaScreen TR-FRET GR Competitive Binding Assay (cell free)
[2] = system: GR activation in 293/PRLR/GRE-Luc cells (HEK293/9xUAS-Luc2P/pBind-GR/PRLR-HA high cells); test: GR co-activator luciferase reporter cell based assay in 293/PRLR/GRE-Luc cells; set-up: species or system human; conditions: for Emax: HEK293, read-out: Activation (fold activation relative to Budesonide) in HEK293/9xUAS-Luc2P/pBind-GR/PRLR-HA high cells; for EC50: read-out: HEK293/9xUAS-Luc2P/pBind-GR/PRLR-HA high cells EC50
Excerpt: Bioassays described herein were used to assess the efficacy of free steroids and anti-PRLR-ncADCs. In one example, the bioassay assessed the activity of steroids, after internalization of a site-specific anti-PRLR-GC steroid ADC into cells, to bind to pBIND-GR and subsequent luciferase reporter activation. […] Then such stable cell line was further transfected with a chimeric receptor consisting of a GR ligand binding domain fused to the yeast Gal4 DNA binding domain (pBind-GR, Promega Cat #E1581), and a Gal4 upstream activator sequence (9×Gal4UAS-Luc2P) that drives luciferase gene expression.
(§1) For this assay, 20,000 cells were seeded in 96-well plates in media containing DMEM supplemented with 10% FBS and pencillin/streptomycin (complete media) and grown overnight at 37° C. in 5% CO2. […] Luciferase activity was determined by addition of OneGlo™ reagent (Promega, Cat #E6130) and relative light units (RLUs) were measured on a Victor luminometer (Perkin Elmer). The EC50 values were determined from a four-parameter logistic equation over a 10 point response curve using GraphPad Prism.
as §1, with “One-Glo™” for “OneGlo™”, “10-point” for “10 point”, “Prism. […] Minimal activation in this assay is defined as less than 10% of the maximal activation measured with the free payload.” for “Prism.”

[3] = Homo sapiens, 72 hours of incubation
[4] = Homo sapiens, HEK293, 72 hours of incubation

Chain of Glucocorticoid Receptor (GR) (P04150 524-758): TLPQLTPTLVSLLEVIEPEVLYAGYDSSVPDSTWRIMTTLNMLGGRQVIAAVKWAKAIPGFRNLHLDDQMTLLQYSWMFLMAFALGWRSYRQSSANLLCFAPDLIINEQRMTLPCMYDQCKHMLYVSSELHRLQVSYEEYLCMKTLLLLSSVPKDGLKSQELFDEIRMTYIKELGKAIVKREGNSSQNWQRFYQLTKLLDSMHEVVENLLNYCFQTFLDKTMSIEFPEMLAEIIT

SMILES	IC50 [1] [nM]	Emax [2, 3] [%]	EC50 [2, 4] [nM]	Activation (fold activation relative to Budesonide) in HEK293/9xUAS-Luc2P/pBind-GR/PRLR-HA high cells ([2]; 72 hours of incubation)	EC50 ([2]; 72 hours of incubation) [nM]	EC50 ([2]; Homo sapiens, HEK293) [nM]	HEK293/9xUAS-Luc2P/pBind-GR/PRLR-HA high cells activation relative to Budesonide ([2]; fold activation vs Budesonide)
CCCC1O[C@@H]2C[C@H]3[C@@H]4C[C@H](F)C5=CC(=O)C=C[C@]5(C)[C@@]4(F)[C@@H](O)C[C@]3(C)[C@]2(C(=O)COc2cccc(N)n2)O1 (stereo partly drawn) [11-17 R/S, (1S,2S,4R,8S,9S,11S,12R,13S,19S)-8-{2-[(6-Aminopyridin-2-yl)oxy]acetyl}-12,19-difluoro-11-hydroxy-9,13-dimethyl-6-propyl-5,7-dioxapentacyclo[10.8.0.0^2,90.0^4,80.0^13,18]icosa-14,17-dien-16-one]	< 10	> 75	10 to 100				
CCCC1O[C@@H]2C[C@H]3[C@@H]4C[C@H](F)C5=CC(=O)C=C[C@]5(C)[C@@]4(F)[C@@H](O)C[C@]3(C)[C@]2(C(=O)CNC)O1 (stereo partly drawn) [11-21 R/S, (1S,2S,4R,8S,9S,11S,12R,13S,19S)-12,19-Difluoro-11-hydroxy-9,13-dimethyl-8-[2-(methylamino)acetyl]-6-propyl-5,7-dioxapentacyclo[10.8.0.0^2,90.0^4,80.0^13,18]icosa-14,17-dien-16-one; trifluoroacetic acid]	< 10	20 to 75	10 to 100				
C[C@@H]1C[C@H]2[C@@H]3C[C@H](F)C4=CC(=O)C=C[C@]4(C)[C@@]3(F)[C@@H](O)C[C@]2(C)[C@@]1(O)C(=O)COc1ccc(N)cc1 [Compound 15-5, (1R,2S,8S,10S,11S,13R,14R,155,17S)-14-[2-(4-Aminophenoxy)acetyl]-1,8-difluoro-14,17-dihydroxy-2,13,15-trimethyltetracyclo[8.7.0.0^2,70.0^11,15]heptadeca-3,6-dien-5 one]	10 to 100			Full activation (Full activation: >75% of fold activation induced by Budesonide)	10 to 100		
CCC[C@@H]1O[C@@H]2C[C@H]3[C@@H]4CCC5=CC(=O)C=C[C@]5(C)[C@H]4[C@@H](O)C[C@]3(C)[C@]2(C(=O)COc2ccc(N)cc2)O1 [11-5 R, (1S,2S,4R,8S,9S,11S,12S,13R)-8-[2-(4-Aminophenoxy)acetyl]-11-hydroxy-9,13-dimethyl-6-propyl-5,7-dioxapentacyclo[10.8.0.0^2,90.0^4,80.0^13,18]icosa-14,17-dien-16-one]	10 to 100	> 75	< 10				
CCCC1O[C@@H]2C[C@H]3[C@@H]4C[C@H](F)C5=CC(=O)C=C[C@]5(C)[C@@]4(F)[C@@H](O)C[C@]3(C)[C@]2(C(=O)COc2cccc(N)c2)O1 (stereo partly drawn) [11-13 R, (1S,2S,4R,6R,8S,9S,11S,12R,13S,19S)-8-[2-(3-Aminophenoxy)acetyl]-12,19-difluoro-11-hydroxy-9,13-dimethyl-6-propyl-5,7-dioxapentacyclo[10.8.0.0^2,90.0^4,80.0^13,18]icosa-14,17-dien-16-one]	< 10	> 75	< 10				
CCCC1O[C@@H]2C[C@H]3[C@@H]4CCC5=CC(=O)C=C[C@]5(C)[C@H]4[C@@H](O)C[C@]3(C)[C@]2(C(=O)CNC)O1 (stereo partly drawn) [11-2 R/S, (1S,2S,4R,8S,9S,11S,12S,13R)-11-hydroxy-9,13-dimethyl-8-[2-(methylamino)acetyl]-6-propyl-5,7-dioxapentacyclo[10.8.0.0^2,90.0^4,80.0^13,18]icosa-14,17-dien-16-one]	10 to 100	> 75	> 100				
C[C@@H]1C[C@H]2[C@@H]3C[C@H](F)C4=CC(=O)C=C[C@]4(C)[C@@]3(F)[C@@H](O)C[C@]2(C)[C@@]1(O)C(=O)CN [Compound 4d, (1R,2S,8S,10S,11S,13R,14R,15S,17S)-14-(2-Aminoacetyl)-1,8-difluoro-14,17-dihydroxy-2,13,15-trimethyltetracyclo 18.7.0.0^2,70.0^11,15]heptadeca-3,6-dien-5-one trifluoroacetate]	10 to 50					10 to 50	Partial
CCC[C@H]1O[C@@H]2C[C@H]3[C@@H]4CCC5=CC(=O)C=C[C@]5(C)[C@H]4[C@@H](O)C[C@]3(C)[C@]2(C(=O)COc2ccc(N)cc2)O1 [11-5 S, (1S,2S,4R,8S,9S,11S,12S,13R)-8-[2-(4-Aminophenoxy)acetyl]-11-hydroxy-9,13-dimethyl-6-propyl-5,7-dioxapentacyclo[10.8.0.0^2,90.0^4,80.0^13,18]icosa-14,17-dien-16-one]	10 to 100	> 75	< 10				
CCC[C@@H]1O[C@@H]2C[C@H]3[C@@H]4CCC5=CC(=O)C=C[C@]5(C)[C@H]4[C@@H](O)C[C@]3(C)[C@]2(C(=O)COc2ccc(NC(C)=O)cc2)O1 [11-11 R/S, N-(4-{2-[(1S,2S,4R,6R,8S,9S,11S,12S,13R)-11-Hydroxy-9,13-dimethyl-16-oxo-6-propyl-5,7-dioxapentacyclo[10.8.0.0^2,90.0^4,80.0^13,18]icosa-14,17-dien-8-yl]-2-oxoethoxy}phenyl)acetamide]	< 10	< 20	> 100				
CCCC1O[C@@H]2C[C@H]3[C@@H]4C[C@H](F)C5=CC(=O)C=C[C@]5(C)[C@@]4(F)[C@@H](O)C[C@]3(C)[C@]2(C(=O)CN)O1 (stereo partly drawn) [11-19 R/S, (1S,2S,4R,6R,8S,9S,11S,12R,13S,19S)-8-(2-Aminoacetyl)-12,19-difluoro-11-hydroxy-9,13-dimethyl-6-propyl-5,7-dioxapentacyclo[10.8.0.0^2,90.0^4,80.0^13,18]icosa-14,17-dien-16-one; trifluoroacetic acid salt]	< 10	> 75	< 10				
